Like-named read-outs stand apart in the source and are kept apart here.
Experiments:
cytotoxicity CC50 = type: cell-based, Human; conditions: human
HIV-2ROD = test: drug susceptibility, MT-2 cells, MTT assay, HIV-2ROD; type: cell-based
Description: (§1) All assays were performed in duplicate or triplicate. […] All assays were performed in duplicate or triplicate.
(§2) Each selectivity index denotes a ratio of CC50 to EC50 against HIV-1LAI N.D., not done.

HIV-1LAI = test: drug susceptibility, MT-2 cells, MTT assay, HIV-1LAI; type: cell-based
Description: as §1, §2

HIV-2EHO = test: drug susceptibility, MT-2 cells, MTT assay, HIV-2EHO; type: cell-based
Description: as §1, §2

HIV-1NFV5μM = test: microbe, parasite or virus in culture; type: cell-based; conditions: for EC50: Human immunodeficiency virus 1, MT4, read-out: EC50 (μM), HIV-1NPV5 μM
HIV-1AZV5μM = test: microbe, parasite or virus in culture; type: cell-based; conditions: for EC50: Human immunodeficiency virus 1, MT4, read-out: EC50 (μM), HIV-1AZV5 μM
HIV-1SQV5μM = test: microbe, parasite or virus in culture; type: cell-based; conditions: for EC50: Human immunodeficiency virus 1, MT4, read-out: EC50 (μM), HIV-1SQV5 μM
[1] = system: multidrug-resistant clinical HIV-1 isolates (HIV-1MDR); test: microbe, parasite or virus in culture; type: cell-based; conditions: Human immunodeficiency virus 1, read-out: greatest EC50 value against the clinical isolates
Summary of the method: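 Clinical PI-resistant isolates (9–14 protease-region substitutions) are tested in phytohemagglutinin-stimulated peripheral blood mononuclear cells exposed to 50 TCID50 of virus in the presence of varying drug concentrations. Cultures run 7 days before supernatant p24 Gag is measured. The endpoint is the EC50 for blocking p24 production.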

HIV-1MDR/G = type: cell-based
Description: (§3) The susceptibility of HIV-1LAI and primary HIV-1 isolates to various drugs were determined as described previously (Koh et al. 2003 Antimicrob Agents Chemother 47:3123-9). Briefly, MT-2 cells (2×10^4/ml) were exposed to 100 50% tissue culture infectious doses (TCID50S) of HIV-1LAI, in the presence or absence of various concentrations of drugs in 96-well microculture plates and were incubated at 37° C. for 7 days. After 100 μl of the medium was removed from each well, 3-(4,5-dimetylthiazol-2-yl)-2,5-diphenyltetrazolium bromide (MTT) solution (10 μl, 7.5 mg/ml in phosphate-buffered saline) was added to each well in the plate, followed by incubation at 37° C. for 3 h. […] All assays were performed in duplicate or triplicate. To determine the susceptibility of primary HIV-1 isolates to drugs, phytohemagglutinin-activated peripheral blood mononuclear cells (PHA-PBMCs; 106/ml) were exposed to 50 TCID50S of each. The target cells were exposed to HIV-1104pre or drug-resistant HIV-1 in the presence or absence of various concentrations of drugs and were incubated for 7 days. Upon the conclusion of the culture, the amounts of p24 Gag protein in the supernatants were determined using a fully automated chemiluminescent enzyme immunoassay system (Lumipulse F; Fujirebio Inc., Tokyo, Japan) (Maeda et al. 2001 J Biol Chem 276:35194-200). To determine the drug susceptibility of certain laboratory HIV-1 strains, MT-4 cells were used as target cells. In brief, MT-4 cells (10^5/ml) were exposed to 100 TCID50S of drug-resistant HIV-1 strains in the presence or absence of various concentrations of drugs and on day 7 of culture, the supernatant was harvested and the amounts of p24 Gag protein were determined. […] All assays were performed in duplicate or triplicate.
(§4) These clinical strains contained 9 to 14 amino acid substitutions in the protease-encoding region, which have reportedly been associated with HIV-1 resistance to various PIs.
(§5) Amino acid substitutions identified in the protease-encoding region compared to the consensus type B sequence cited from the Los Alamos database include L63P in HIV-1ERS104pre; L10I, K14R, L33I, M36I, M46I, F53I, K55R, I62V, L63P, A71V, G73S, V82A, L90M, and I93L in HIV-1MDR/B; L10I, I15V, K20R, L24I, M36I, M46L, I54V, I62V, L63P, K70Q, V82A, and L89M in HIV-1MDR/C; L10I, V11I, T12E, I15V, L19I, R41K, M46L, L63P, A71T, V82A, and L90M in HIV-1MDR/G; L10I, K14R, R41K, M46L, I54V, L63P, A71V, V82A, L90M, I93L in HIV-1MDR/TM; L10I, K43T, M46L, I54V, L63P, A71V, V82A, L90M, and Q92K in HIV-1MDR/MM; L10I, L24I, I33F, E35D, M36I, N37S, M46L, I54V, R57K, I62V, L63P, A71V, G73S, and V82A in HIV-1MDR/JSL. HIV-1ERS104pre served as a source of wild-type HIV-1. EC50s were determined by using PHA-PBMs as target cells, and inhibition of p24 Gag protein production by each drug was used as an end point. Numbers in parentheses represent n-fold changes of EC50s for each isolate compared to EC50s for wild-type HIV-1ERS104pre.

HIV-1MDR/C = type: cell-based
Description: as §3, §4, §5

HIV-1MDR/TM = type: cell-based
Description: as §3, §4, §5

HIV-1MDR/B = type: cell-based
Description: as §3, §4, §5

[2] = system: HIV-1ERS104pre (wild-type); test: p24 Gag inhibition in PHA-PBMCs, HIV-1ERS104pre; type: cell-based; conditions: mean ± 1 SD
Description: as §3, §4, §5

HIV-1 = test: antiviral assay (IC50); type: cell-based
Description: The inhibitory potencies of acyclic and cyclic inhibitors were measured by the assay protocol of Toth and Marshall (Toth, M. V.; Marshall, G. R. A simple, continuous fluorometric assay for HIV protease. Int. J. Pep. Protien Res. 1990, 36, 544-55).

[3] = Human immunodeficiency virus 2, MT2, read-out: EC50 (μM) for HIV-2ROD
[4] = Human immunodeficiency virus 1, MT2, read-out: EC50 (μM) for HIV-1LAI
[5] = compared to wild-type HIV-1ERS104pre
[6] = Human immunodeficiency virus 2, MT2, read-out: EC50 (μM) for HIV-2EHO
[7] = compared to wild-type HIV-1NL4-3

In the case of CC(C)CN(C[C@@H](O)[C@H](Cc1ccccc1)NC(=O)O[C@H]1CCOC1)S(=O)(=O)c1ccc(N)cc1 [APV, Amprenavir], the CC50 (cytotoxicity CC50; MT-2 cells, read-out: CC50) is reported as greater than 100000 nM, the EC50 (HIV-2ROD; Human immunodeficiency virus 2, MT2, MT-2 cells, MTT assay, mean ± 1 SD, read-out: EC50 (μM) for HIV-2ROD) is reported as 0.42 ± 0.1 µM and the EC50 (HIV-1LAI; Human immunodeficiency virus 1, MT2, MT-2 cells, MTT assay, mean ± 1 SD, read-out: EC50 (μM) for HIV-1LAI) is reported as 0.024 ± 0.008 µM. It also gave an EC50 (HIV-2EHO; Human immunodeficiency virus 2, MT2, MT-2 cells, MTT assay, mean ± 1 SD, read-out: EC50 (μM) for HIV-2EHO) of 0.12 ± 0.03 µM, an EC50 (HIV-1NFV5μM) of 0.028 ± 0.005 µM and an EC50 (HIV-1AZV5μM) of 0.28 ± 0.06 µM. For the same molecule, the EC50 (HIV-1SQV5μM) was 0.18 ± 0.1 µM.
CCC[C@@]1(CCc2ccccc2)CC(O)=C([C@H](CC)c2cccc(NS(=O)(=O)c3ccc(C(F)(F)F)cn3)c2)C(=O)O1 [TPV, Tipranavir] showed an EC50 [1] of 380 nM, an EC50 (HIV-2ROD; [3]) of 0.33 ± 0.07 µM and an EC50 (HIV-1LAI; [4]) of 0.17 ± 0.005 µM. The “Selectivity Index” value (HIV-1LAI; ratio of CC50 to EC50 against HIV-1LAI) was 320, the “EC50 (μM), HIV-1MDR/G (SI)” value (HIV-1MDR/G; PHA-PBMCs, p24 Gag) was 0.24 ± 0.08 µM and the “n-fold change of EC50, HIV-1MDR/G” value (HIV-1MDR/G; [5]) was “(2)”. For the same molecule, the “EC50 (μM), HIV-1MDR/C (SI)” value (HIV-1MDR/C; PHA-PBMCs, p24 Gag) was 0.38 ± 0.079 µM, the “n-fold change of EC50, HIV-1MDR/C” value (HIV-1MDR/C; [5]) was “(3)” and the “EC50 (μM), HIV-1MDR/TM (SI)” value (HIV-1MDR/TM; PHA-PBMCs, p24 Gag) was 0.38 ± 0.05 µM. For the same molecule, the “n-fold change of EC50, HIV-1MDR/TM” value (HIV-1MDR/TM; [5]) was “(3)”, the “EC50 (μM), HIV-1MDR/B (SI)” value (HIV-1MDR/B; PHA-PBMCs, p24 Gag) was 0.18 ± 0.009 µM and the “n-fold change of EC50, HIV-1MDR/B” value (HIV-1MDR/B; [5]) was “(2)”. For the same molecule, the EC50 (HIV-2EHO; [6]) was 0.3 ± 0.15 µM, the EC50 (HIV-1NFV5μM) was 0.039 ± 0.041 µM and the “n-fold change in EC50, HIV-1NPV5 μM” value (HIV-1NFV5μM; [7]) was “(0.1)”. For the same molecule, the EC50 (HIV-1AZV5μM) was 0.41 ± 0.047 µM, the “n-fold change in EC50, HIV-1AZV5 μM” value (HIV-1AZV5μM; [7]) was “(1)” and the EC50 (HIV-1SQV5μM) was 0.022 ± 0.009 µM. For the same molecule, the “n-fold change in EC50, HIV-1SQV5 μM” value (HIV-1SQV5μM; [7]) was “(0.1)” and the “EC50 (μM), HIV-1ERS104pre (wild-type SI)” value [2] was 0.12 ± 0.03 µM.
Molecule COc1ccc2c(c1)OCCC=CCCCCN(CC(O)C(Cc1ccccc1)NC(=O)OC1COC3OCCC13)S2(=O)=O (stereo not shown) [Compound 14c] has a CC50 (cytotoxicity CC50) of 48800 ± 1300 nM, an EC50 (HIV-2ROD; [3]) of 0.017 ± 0.001 µM and an EC50 (HIV-1LAI; [4]) of 0.002 ± 0.001 µM. The EC50 (HIV-2EHO; [6]) was 0.01 ± 0.007 µM, the IC50 (HIV-1; Human immunodeficiency virus 1, Table 2, read-out: IC50) was less than 10 nM and the IC50 (HIV-1; Human immunodeficiency virus 1, text b167) was 2 nM. It also gave an IC50 (HIV-1; Human immunodeficiency virus 1, read-out: IC50) of 2 nM, an EC50 (HIV-1NFV5μM) of 0.04 ± 0.017 µM and an EC50 (HIV-1AZV5μM) of 0.023 ± 0.005 µM. The EC50 (HIV-1SQV5μM) was 0.02 ± 0.009 µM.
